pIC50: −log10 of the molar value.
molecular target: NSP14 (Severe acute respiratory syndrome coronavirus 2, UniProt P0DTD1); experiment: NSP14 MTase inhibition assay at 37° C. (MTase-Glo SAH detection); assay type: biochemical, SARS-CoV-2; settings: 0.3 nM NSP14, 2.5 μM SAM, 2.5 μM GpppA RNA, 45 min at 37° C.; read-out: Nsp14 Mtase Inh. IC50

First: Cc1c(S(=O)(=O)c2ccc3[nH]ncc3c2)cc(C(=O)N[C@@H]2CCN(c3cc(C#N)ccn3)C2)n1C [A.79]
Second: Cc1c(S(=O)(=O)c2ccc3[nH]ncc3c2)cc(C(=O)N[C@@H]2CCN(c3cccc(C#N)c3)C2)n1C [A.84]
The pIC50 of the first is lower: 9.22 for the first, greater than 9.82 for the second. The second is the more potent here.

Going from `Cc1c(S(=O)(=O)c2ccc3[nH]ncc3c2)cc(C(=O)N[C@@H]2CCN(c3ncccc3C(F)(F)F)C2)n1C` [A.80] to `Cc1c(S(=O)(=O)c2ccc3[nH]ncc3c2)cc(C(=O)N[C@@H]2CCN(c3ccccc3C(F)(F)F)C2)n1C` [A.103], the pIC50 falls from 8.82 to 8.29 (0.53 log units).

`Cc1c(S(=O)(=O)c2ccc3[nH]ncc3c2)cc(C(=O)N[C@@H]2CCN(c3ccc(F)cc3)C2)n1C` [A.81] and `Cc1c(S(=O)(=O)c2ccc3[nH]ncc3c2)cc(C(=O)N[C@@H]2CCN(c3cccc(F)c3)C2)n1C` [A.87] are within 0.2 log units of each other in pIC50: 9.24 for the first, 9.12 for the second.

First: Cc1c(S(=O)(=O)c2ccc3[nH]ncc3c2)cc(C(=O)N[C@@H]2CCN(c3ccc(F)cc3C#N)C2)n1C [A.82]
Second: Cc1c(S(=O)(=O)c2ccc3[nH]ncc3c2)cc(C(=O)N[C@@H]2CCN(c3ccccc3C#N)C2)n1C [A.83]
The pIC50 of the first is 0.27 log units higher: 9.35 for the first, 9.08 for the second.

First: Cc1c(S(=O)(=O)c2ccc3[nH]ncc3c2)cc(C(=O)N[C@@H]2CCN(c3ccccc3OC(F)(F)F)C2)n1C [A.85]
Second: Cc1c(S(=O)(=O)c2ccc3[nH]ncc3c2)cc(C(=O)N[C@@H]2CCN(c3cccc(C(F)(F)F)c3)C2)n1C [A.100]
The pIC50 of the first is 0.97 log units lower: 7.57 for the first, 8.54 for the second.

First: Cc1c(S(=O)(=O)c2ccc3[nH]ncc3c2)cc(C(=O)N[C@@H]2CCN(c3cccc(C(F)F)c3)C2)n1C [A.86]
Second: Cc1c(S(=O)(=O)c2ccc3[nH]ncc3c2)cc(C(=O)N[C@@H]2CCN(c3ccnc(C(F)F)c3)C2)n1C [A.107]
The pIC50 of the first is 1.17 log units lower: 8.60 for the first, 9.77 for the second.

`COc1ccc(N2CC[C@@H](NC(=O)c3cc(S(=O)(=O)c4ccc5[nH]ncc5c4)c(C)n3C)C2)nn1` [A.88] and `COc1cnc(N2CC[C@@H](NC(=O)c3cc(S(=O)(=O)c4ccc5[nH]ncc5c4)c(C)n3C)C2)cn1` [A.113] cannot be ordered by pIC50: greater than 9.82 for the first, greater than 9.82 for the second.

First: Cc1c(S(=O)(=O)c2ccc3[nH]ncc3c2)cc(C(=O)N[C@H]2CN(c3ncc(F)cn3)C[C@H]2O)n1C [A.89]
Second: Cc1c(S(=O)(=O)c2ccc3[nH]ncc3c2)cc(C(=O)N[C@@H]2CCN(c3ncc(F)cn3)C2)n1CCO [A.90]
The pIC50 of the first is lower: 7.85 for the first, greater than 9.82 for the second.

Compared with `COCCn1c(C(=O)N[C@@H]2CCN(c3ncc(F)cn3)C2)cc(S(=O)(=O)c2ccc3[nH]ncc3c2)c1C` [A.91], `Cc1c(S(=O)(=NCCO)c2ccc3[nH]ncc3c2)cc(C(=O)N[C@@H]2CCN(c3ncc(F)cn3)C2)n1C` (stereo partly drawn) [A.102] is 0.43 log units lower in pIC50: 9.77 for the first, 9.34 for the second.

Going from `Cc1c(S(=O)(=O)c2ccc3[nH]ncc3c2)cc(C(=O)N[C@@H]2CCN(c3ccnc(C(F)(F)F)n3)C2)n1C` [A.92] to `Cc1c(S(=O)(=O)c2ccc3[nH]ncc3c2)cc(C(=O)N[C@@H]2CCN(c3cc(C(F)(F)F)ncn3)C2)n1C` [A.94], the pIC50 falls from greater than 9.82 to 9.82. The first is the more potent here.

First: Cc1c(S(=O)(=O)c2ccc3[nH]ncc3c2)cc(C(=O)N[C@@H]2CCN(c3ccncn3)C2)n1C [A.93]
Second: Cc1c(S(=O)(=O)c2ccc3[nH]ncc3c2)cc(C(=O)N[C@@H]2CCN(c3cccnn3)C2)n1C [A.99]
The pIC50 of the first is 0.28 log units higher: 9.70 for the first, 9.42 for the second. The first is the more potent here.

Compared with `Cc1c(S(=O)(=O)c2ccc3[nH]ncc3c2)cc(C(=O)N[C@@H]2CCN(c3cnccc3C#N)C2)n1C` [A.95], `Cc1c(S(=O)(=O)c2ccc3[nH]ncc3c2)cc(C(=O)N[C@@H]2CCN(c3ncncc3C#N)C2)n1C` [A.121] is lower in pIC50: greater than 9.82 for the first, 9.52 for the second.

Going from `Cc1c(S(=O)(=O)c2ccc3[nH]ncc3c2)cc(C(=O)N[C@@H]2CCN(c3cc(F)cc(F)c3)C2)n1C` [A.96] to `Cc1c(S(=O)(=O)c2ccc3[nH]ncc3c2)cc(C(=O)N[C@@H]2CCN(c3cnnc(Cl)c3)C2)n1C` [A.118], the pIC50 rises from 9.07 to greater than 9.82.

Compared with `Cc1c(S(=O)(=O)c2ccc3[nH]ncc3c2)cc(C(=O)N[C@H]2C[C@@H](Nc3ncc(F)cn3)C2)n1C` [A.97], `Cc1c(S(=O)(=O)c2ccc3[nH]ncc3c2)cc(C(=O)N[C@H]2C[C@@H](N(C)c3ncc(F)cn3)C2)n1C` [A.98] is 1.52 log units higher in pIC50: 7.89 for the first, 9.41 for the second. The second is the more potent here.

Going from `Cc1c(S(=O)(=O)c2ccc3[nH]ncc3c2)cc(C(=O)N[C@@H]2CCN(Cc3ccc(C#N)cc3)C2)n1C` [A.101] to `Cc1c(S(=O)(=O)c2ccc3[nH]ncc3c2)cc(C(=O)N[C@@H]2CCN(Cc3ccc(C#N)cn3)C2)n1C` [A.105], the pIC50 rises from 7.59 to 7.85 (0.26 log units).

Compared with `Cc1c(S(=O)(=O)c2ccc3[nH]ncc3c2)cc(C(=O)N[C@@H]2CCN(Cc3ccc(F)cn3)C2)n1C` [A.104], `Cc1c(S(=O)(=O)c2ccc3[nH]ncc3c2)cc(C(=O)N[C@@H]2CCN(c3nccc(C(F)F)n3)C2)n1C` [A.122] is 1.15 log units higher in pIC50: 8.37 for the first, 9.52 for the second. The second is the more potent here.

Going from `Cc1c(S(=O)(=O)c2cc(Cl)c3[nH]ncc3c2)cc(C(=O)N[C@@H]2CCN(c3ccc(C#N)cn3)C2)n1C` [A.106] to `Cc1c(S(=O)(=O)c2cc(Cl)c3[nH]ncc3c2)cc(C(=O)N[C@@H]2CCN(c3ccnnc3)C2)n1C` [A.119], the pIC50 falls from greater than 9.82 to 9.43. The first is the more potent here.

`Cc1c(S(=O)(=O)c2ccc3[nH]ncc3c2)cc(C(=O)N[C@@H]2CCN(c3ccc(C#N)c(C#N)c3)C2)n1C` [A.108] and `Cc1c(S(=O)(=O)c2ccc3[nH]ncc3c2)cc(C(=O)N[C@@H]2CCN(c3cccc(C#N)c3C#N)C2)n1C` [A.109] cannot be ordered by pIC50: greater than 9.82 for the first, greater than 9.82 for the second.

First: Cc1c(S(=O)(=O)c2ccc3[nH]ncc3c2)cc(C(=O)N[C@H]2CN(c3ccc(C#N)cn3)CC23CC3)n1C [A.110]
Second: Cc1c(S(=O)(=O)c2ccc3[nH]ncc3c2)cc(C(=O)N[C@@H]2CCN(c3nccnc3C#N)C2)n1C [A.120]
The pIC50 of the first is 0.44 log units lower: 9.15 for the first, 9.59 for the second.

First: Cc1c(S(=O)(=O)c2ccc3[nH]ncc3c2)cc(C(=O)N[C@@H]2CCN(c3cnn(C)c(=O)c3)C2)n1C [A.111]
Second: COc1ncc(N2CC[C@@H](NC(=O)c3cc(S(=O)(=O)c4ccc5[nH]ncc5c4)c(C)n3C)C2)cn1 [A.124]
The pIC50 of the first is higher: greater than 9.82 for the first, 9.64 for the second. The first is the more potent here.

Compared with `Cc1c(S(=O)(=O)c2ccc3[nH]nc(F)c3c2)cc(C(=O)N[C@@H]2CCN(c3ccnnc3)C2)n1C` [A.112], `Cc1c(S(=O)(=O)c2ccc3[nH]ncc3c2)cc(C(=O)N[C@@H]2CCN(c3ccc(C(F)(F)F)cc3)C2)n1C` [A.123] is 1.21 log units lower in pIC50: 9.28 for the first, 8.07 for the second. The first is the more potent here.

same assay, conditions: 37° C., 0.3 nM NSP14, 2.5 μM SAM, 2.5 μM GpppA RNA; read-out: Nsp14 Mtase Inh. IC50

Compared with `Cc1c(S(=O)(=O)c2ccc3[nH]ncc3c2)cc(C(=O)NCc2cccc3ncn(C4CC4)c23)n1C` [B.1], `Cc1c(S(=O)(=O)c2ccc3[nH]ncc3c2)cc(C(=O)NCc2c(F)ccc3ncn(C4CC4)c23)n1C` [B.18] is higher in pIC50: 9.42 for the first, greater than 9.82 for the second. The second is the more potent here.

First: Cc1c(S(=O)(=O)c2cccc(C#N)c2)cc(C(=O)NCc2c(F)ccc3cnn(C)c23)n1C [B.2]
Second: Cc1c(S(=O)(=O)c2cccc(C#N)c2)cc(C(=O)NCc2cccc3ncn(C)c23)n1C [B.4]
The pIC50 of the first is 0.90 log units higher: 9.21 for the first, 8.31 for the second. The first is the more potent here.

First: Cc1c(S(=O)(=O)c2cccc(C#N)c2)cc(C(=O)NCc2cccc3ncn(C4CC4)c23)n1C [B.3]
Second: Cc1c(S(=O)(=O)c2cccc(C#N)c2)cc(C(=O)NCc2cccc3cnn(C4CC4)c23)n1C [B.14]
The pIC50 of the first is 0.64 log units higher: 8.28 for the first, 7.64 for the second. The first is the more potent here.

Compared with `Cc1c(S(=O)(=O)c2ccc3c(c2)CC(=O)N3)cc(C(=O)NCc2cccc3cnn(C)c23)n1C` [B.5], `Cc1c(S(=O)(=O)c2ccc3c(c2)CNC3)cc(C(=O)NCc2cccc3cnn(C)c23)n1C` [B.10] is 1.11 log units lower in pIC50: 8.06 for the first, 6.95 for the second. The first is the more potent here.

First: Cc1c(S(=O)(=O)c2ccc(C(F)(F)F)cc2)cc(C(=O)NCc2cccc3cnn(C)c23)n1C [B.6]
Second: Cc1c(S(=O)(=O)c2ccc(C3CC3)cc2)cc(C(=O)NCc2cccc3cnn(C)c23)n1C [B.7]
The pIC50 of the first is 0.52 log units higher: 7.46 for the first, 6.94 for the second.

First: Cc1c(S(=O)(=O)c2ccc3c(=O)[nH]cnc3c2)cc(C(=O)NCc2cccc3cnn(C)c23)n1C [B.8]
Second: Cc1c(S(=O)(=O)c2ccc3[nH]nc(F)c3c2)cc(C(=O)NCc2cccc3cnn(C)c23)n1C [B.12]
The pIC50 of the first is 2.05 log units lower: 7.15 for the first, 9.20 for the second. The second is the more potent here.

First: Cc1c(S(=O)(=O)c2cc(F)c3[nH]ncc3c2)cc(C(=O)NCc2cccc3cnn(C)c23)n1C [B.9]
Second: Cc1c(S(=O)(=O)c2cnc3[nH]ncc3c2)cc(C(=O)NCc2cccc3cnn(C)c23)n1C [B.30]
The pIC50 of the first is 0.94 log units higher: 9.28 for the first, 8.34 for the second.

First: Cc1c(S(=O)(=O)c2ccc3[nH]ncc3c2)cc(C(=O)NCc2cccc3ccc(=O)n(C)c23)n1C [B.11]
Second: Cc1c(S(=O)(=O)c2ccc3[nH]ncc3c2)cc(C(=O)NCc2cccc3c2N(C)C(=O)C3)n1C [B.13]
The pIC50 of the first is 0.54 log units lower: 8.68 for the first, 9.22 for the second. The second is the more potent here.

First: Cc1c(S(=O)(=O)c2ccc3[nH]ncc3c2)cc(C(=O)NCc2cccc3c2N(C)C(=O)CC3)n1C [B.15]
Second: Cc1c(S(=O)(=O)c2ccc3[nH]ncc3c2)cc(C(=O)NCc2cccc3c2CCC(=O)N3C)n1C [B.25]
The pIC50 of the first is lower: 7.85 for the first, greater than 9.82 for the second. The second is the more potent here.

Compared with `Cc1c(S(=O)(=O)c2ccc3[nH]ncc3c2)cc(C(=O)NCc2c(F)ccc3cnn(C4CC4)c23)n1C` [B.16], `Cc1cc(S(=O)(=O)c2cc(C(=O)NCc3c(F)ccc4cnn(C5CC5)c34)n(C)c2C)cc2cn[nH]c12` [B.28] is 0.20 log units higher in pIC50: 9.42 for the first, 9.62 for the second. The second is the more potent here.

First: Cc1c(S(=O)(=O)c2cc(F)c3ncccc3c2)cc(C(=O)NCc2cccc3cnn(C)c23)n1C [B.17]
Second: Cc1c(S(=O)(=O)c2ccc3[nH]nc(C#N)c3c2)cc(C(=O)NCc2cccc3cnn(C)c23)n1C [B.29]
The pIC50 of the first is 0.52 log units higher: 7.38 for the first, 6.86 for the second.

`Cc1c(S(=O)(=O)c2ccc3[nH]ncc3c2)cc(C(=O)NCc2cccnc2N2CCC(F)(F)C2)n1C` [B.20] and `Cc1c(S(=O)(=O)c2ccc3[nH]ncc3c2)cc(C(=O)NCc2cccc3c2N(C)C(=O)C3(F)F)n1C` [B.26] are within 0.2 log units of each other in pIC50: 9.12 for the first, 9.31 for the second.

First: Cc1c(S(=O)(=O)c2ccc3[nH]ncc3c2)cc(C(=O)NCc2c[nH]c(=O)c3ccccc23)n1C [B.21]
Second: Cc1c(S(=O)(=O)c2ccc3[nH]ncc3c2)cc(C(=O)NCc2cccc3c(F)n[nH]c23)n1C [B.31]
The pIC50 of the first is 1.00 log units higher: 9.27 for the first, 8.27 for the second.

`Cc1c(S(=O)(=O)c2ccc3[nH]ncc3c2)cc(C(=O)NCc2c(F)cccc2F)n1C` [B.22] and `Cc1c(S(=O)(=O)c2ccc3[nH]ncc3c2)cc(C(=O)NCc2cccc3c2N(C)C(=O)C32CC2)n1C` [B.32] are within 0.2 log units of each other in pIC50: 9.64 for the first, 9.74 for the second.

Going from `Cc1c(S(=O)(=O)c2ccc3[nH]ncc3c2)cc(C(=O)NCc2nccc3cnn(C)c23)n1C` [B.24] to `Cc1cc(S(=O)(=O)c2cc(C(=O)NCc3c(F)ccc4ncn(C5CC5)c34)n(C)c2C)cc2cn[nH]c12` [B.27], the pIC50 rises from 9.21 to 9.68 (0.47 log units).
